According to patent US20250304551A1 (SHANGHAI APEIRON THERAPEUTICS COMPANY LIMITED, priority 2022, published 2025):

Assays:
HT29 cells = assay: CyQuant cell proliferation activity test, HT29; format: cell-based; settings: Homo sapiens, HT-29, 72 h, HT29 2000 cells per well, 3 days incubation, initial concentration 3000 nM, IC50 by XLFIT, read-out: HT-29 Cell Viability_IC50_nM
Method: Materials and Cells: HT29 cells were purchased from Nanjing Cobioer Biosciences Co., Ltd.; RPM-1640 medium, fetal bovine serum, Trypsin-EDTA (0.25%), DMSO, 96-well plates, and CyQuant reagents were purchased from ThermoFisher (USA).
Cell Culture: Culture HT29 cells with RPMI-1640 containing 10% fetal bovine serum under the condition of 37° C. and 5% CO2. Only cells in the logarithmic growth phase can be used for the test.
Cell Proliferation Activity Test: Use the CyQuant reagent to detect the proliferation inhibitory activity of compounds on HT29 cells. Adjust the cell density and inoculate 100 μL per well into the 96-well plate (HT29 at 2000 cells per well), then incubate overnight under the condition of 37° C. and […]. Add compounds of various target concentrations (initial concentration of 3000 nM, 3-fold dilution, 9 concentration gradients), and make the DMSO content 0.20%. Incubate the cell plates at 37° C. and 5% CO2 for 3 days. Incubate with CyQuant reagent for 1 h, read the plate by Envision, and calculate IC50 using XLFIT.

[1] = target: T1, Human KIF18A (amino acid sequence 1-417) (Homo sapiens, UniProt Q8NI77); assay: Enzyme activity detection experiment (ADP-Glo, KIF18A with tubulin and ATP); format: biochemical; settings: tubulin 60 μg/mL, ATP 25 μM, KIF18A protein 2.5 nM, 120 minutes at ambient temperature, ADP-Glo chemiluminescence
T1 construct: purchased Viva Biotech (Shanghai) Ltd
Method: Materials: Human KIF18A (amino acid sequence 1-417) was obtained from Viva Biotech (Shanghai) Ltd., and the ADP-Glo™ protein kinase kit was acquired from Promega, USA. Tubulin was sourced from Cytoskeleton, USA, while a 384-well assay plate and the Envision multifunctional microplate reader were obtained from PerkinElmer, USA.
Enzyme activity detection: The compound powder in DMSO was firstly dissolved to prepare a 10 mM stock solution. Next, gradient dilutions were prepared in the microplate to achieve final concentrations of […]. Sequentially, 2.5 μL of tubulin (60 μg/mL), the compound, ATP (25 μM), and KIF18A protein (2.5 nM) were added to each well, and the reaction was incubated at ambient temperature for 120 minutes. After the reaction, 10 μL of ADP-Glo™ reagent was added to each well and incubated at ambient temperature for 30 minutes. Subsequently, 20 μL of detection reagent was added to each well and incubated for an additional 30 minutes in the dark. Finally, chemiluminescence detection was performed using the PerkinElmer Envision multifunctional microplate reader.

OVCAR3 cells = assay: Cell proliferation activity test, OVCAR3 (CyQUANT Direct); format: cell-based; settings: Homo sapiens, OVCAR-3, 72 h, 3 days incubation, CyQUANT fluorescence detection, read-out: OVCAR-3 Cell Viability_IC50_nM
Method: Materials and Cells: OVCAR3 cells were purchased from Nanjing Cobioer Biosciences Co., Ltd. RPMI-1640 medium, fetal bovine serum, and the CyQUANT Direct Cell Proliferation Assay kit were purchased from Thermo Fisher Scientific, USA; 96-well cell culture plates were sourced from Corning, USA.
Cell Culture: Culture OVCAR3 cells with RPMI-1640 medium containing […] and incubate them in a […] incubator at 37° C. Only cells in the logarithmic growth phase can be used for the test.
Inoculate OVCAR3 cells into a 96-well cell culture plate at 90 μL per well and incubate overnight in a […] incubator at 37° C. Dissolve the compound powder in DMSO to prepare a stock solution of 10 mM. Then perform gradient dilution for the compounds in the microplate to achieve a final concentration of 0-10 μM. Add 10 μL of cell culture medium containing compounds to each well to make the final DMSO content 0.20%. Incubate the cell plates in a […] incubator at 37° C. for 3 days. Add 100 μL of CyQUANT detection reagent to each well, react at 37° C. for 60 min, and perform fluorescence detection using the PerkinElmer Envision.

T1 sequence (Q8NI77 1-417): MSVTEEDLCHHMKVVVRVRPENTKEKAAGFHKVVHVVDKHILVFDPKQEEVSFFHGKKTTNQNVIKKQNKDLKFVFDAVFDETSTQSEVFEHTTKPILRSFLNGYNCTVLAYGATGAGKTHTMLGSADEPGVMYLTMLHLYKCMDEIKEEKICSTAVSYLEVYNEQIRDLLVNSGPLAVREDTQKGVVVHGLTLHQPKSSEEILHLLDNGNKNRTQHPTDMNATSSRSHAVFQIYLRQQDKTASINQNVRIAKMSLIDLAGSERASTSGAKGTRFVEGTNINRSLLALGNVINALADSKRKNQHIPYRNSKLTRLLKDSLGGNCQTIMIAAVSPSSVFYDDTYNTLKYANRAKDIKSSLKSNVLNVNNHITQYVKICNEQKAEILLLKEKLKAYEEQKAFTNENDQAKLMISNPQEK
T1 sequence (Q2XVP4 whole entry partner): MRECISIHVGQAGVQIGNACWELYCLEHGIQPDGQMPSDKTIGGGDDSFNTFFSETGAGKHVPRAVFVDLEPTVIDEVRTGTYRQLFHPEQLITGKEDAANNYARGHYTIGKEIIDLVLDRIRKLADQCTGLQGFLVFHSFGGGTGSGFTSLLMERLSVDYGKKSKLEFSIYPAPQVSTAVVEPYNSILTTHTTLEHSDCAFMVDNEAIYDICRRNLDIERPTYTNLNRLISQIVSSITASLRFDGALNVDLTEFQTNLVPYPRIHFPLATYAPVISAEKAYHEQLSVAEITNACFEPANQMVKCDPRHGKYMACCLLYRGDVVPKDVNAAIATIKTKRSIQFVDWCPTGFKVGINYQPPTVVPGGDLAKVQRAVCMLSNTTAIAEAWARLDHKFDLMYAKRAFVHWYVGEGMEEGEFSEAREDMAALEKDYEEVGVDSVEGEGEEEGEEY
T1 sequence (P02554 whole entry partner): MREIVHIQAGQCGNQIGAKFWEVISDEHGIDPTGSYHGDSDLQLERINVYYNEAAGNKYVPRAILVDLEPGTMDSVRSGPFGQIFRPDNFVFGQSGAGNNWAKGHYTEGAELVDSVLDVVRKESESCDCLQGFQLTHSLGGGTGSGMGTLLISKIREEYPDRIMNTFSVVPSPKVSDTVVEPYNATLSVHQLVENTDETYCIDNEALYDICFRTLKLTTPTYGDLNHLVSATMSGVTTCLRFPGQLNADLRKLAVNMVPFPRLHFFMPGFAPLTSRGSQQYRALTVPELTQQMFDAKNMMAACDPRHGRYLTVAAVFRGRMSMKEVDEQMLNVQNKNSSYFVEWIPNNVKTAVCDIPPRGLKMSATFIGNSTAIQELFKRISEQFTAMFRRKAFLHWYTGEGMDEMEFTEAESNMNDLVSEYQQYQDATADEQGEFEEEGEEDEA

Row | SMILES | IC50 (HT29 cells) | IC50 [1] | IC50 (OVCAR3 cells)
1 | O=S(=O)(CCO)Nc1ccc(C=C(F)c2cc(N3CCC(F)(F)CC3)c3ncccc3c2)c(N2CCC3(CC2)CC3)c1 [Example 1, N-(4-(2-(8-(4,4-difluoropiperidin-1-yl)quinolin-6-yl)-2-fluorovinyl)-3-(6-azaspiro[2.5]octan-6-yl)phenyl)-2-hydroxyethane-1-sulfonamide] | 629 nM | > 3000 nM | 474 nM
2 | O=S(=O)(CCO)Nc1ccc(/C(F)=C/c2cc(N3CCC(F)(F)CC3)c3ncccc3c2)c(N2CCC3(CC2)CC3)c1 [Example 2, (Z)-N-(4-(2-(8-(4,4-difluoropiperidin-1-yl)quinolin-6-yl)-1-fluorovinyl)-3-(6-azasppiro[2.5]octan-6-yl)phenyl)-2-hydroxyethane-1-sulfonamide] | 811 nM | > 3000 nM | 766 nM
3 | O=S(=O)(CCO)Nc1ccc(/C(F)=C\c2cc(N3CCC(F)(F)CC3)c3ncccc3c2)c(N2CCC3(CC2)CC3)c1 [Example 3, (E)-N-(4-(2-(8-(4,4-difluoropiperidin-1-yl)quinolin-6-yl)-1-fluorovinyl)-3-(6-azasppiro[2.5]octan-6-yl)phenyl)-2-hydroxyethane-1-sulfonamide] | 210 nM | 852 nM | 181 nM
4 | Cc1cc(-c2nnc(-c3ccc(NS(=O)(=O)CCO)cc3N3CCC4(CC3)CC4)[nH]2)nc(N2CCC(F)(F)CC2)n1 [Example 4, N-(4-(5-(2-(4,4-difluoropiperidin-1-yl)-6-methylpyrimidin-4-yl)-4H-1,2,4-triazol-3-yl)-3-(6-azaspiro[2.5]octan-6-yl)phenyl)-2-hydroxyethane-1-sulfonamide] | 77 nM | 38 nM | 62 nM
5 | Cc1cc(-c2nnn(-c3ccc(NS(=O)(=O)CCO)cc3N3CCC4(CC3)CC4)n2)nc(N2CCC(F)(F)CC2)n1 [Example 8, N-(4-(5-(2-(4,4-difluoropiperidin-1-yl)-6-methylpyrimidin-4-yl)-2H-tetrazol-2-yl)-3-(6-azaspiro[2.5]octan-6-yl)phenyl)-2-hydroxyethane-1-sulfonamide] | 250 nM | 775 nM | 496 nM
6 | Cc1cc(-n2nnc(-c3ccc(NS(=O)(=O)CCO)cc3N3CCC4(CC3)CC4)n2)cc(N2CCC(F)(F)CC2)n1 [Example 9, N-(4-(2-(2-(4,4-difluoropiperidin-1-yl)-6-methylpyridin-4-yl)-2H-tetrazol-5-yl)-3-(6-azaspiro[2.5]octan-6-yl)phenyl)-2-hydroxyethane-1-sulfonamide] | 165 nM | 312 nM | 107 nM
7 | Cc1cc(-c2cn(-c3ccc(NS(=O)(=O)CCO)cc3N3CCC4(CC3)CC4)cn2)nc(N2CCC(F)(F)CC2)n1 [Example 10, N-(4-(4-(2-(4,4-difluoropiperidin-1-yl)-6-methylpyrimidin-4-yl)-1H-imidazol-1-yl)-3-(6-azaspiro[2.5]octan-6-yl)phenyl)-2-hydroxyethane-1-sulfonamide] | 56 nM | 251 nM | 46 nM
8 | COc1cc(-c2cn(-c3ccc(NS(=O)(=O)CCO)cc3N3CCC4(CC3)CC4)cn2)nc(N2CCC(F)(F)CC2)n1 [Example 11, N-(4-(4-(2-(4,4-difluoropiperidin-1-yl)-6-methoxypyrimidin-4-yl)-1H-imidazol-1-yl)-3-(6-azaspiro[2.5]octan-6-yl)phenyl)-2-hydroxyethane-1-sulfonamide] | 319 nM | 252 nM | 164 nM
9 | Cc1cc(-n2cnc(-c3ccc(NS(=O)(=O)CCO)cc3N3CCC4(CC3)CC4)c2)nc(N2CCC(F)(F)CC2)n1 [Example 12, N-(4-(1-(2-(4,4-difluoropiperidin-1-yl)-6-methylpyrimidin-4-yl)-1H-imidazol-4-yl)-3-(6-azaspiro[2.5]octan-6-yl)phenyl)-2-hydroxyethane-1-sulfonamide] | 568 nM | > 3000 nM | 464 nM
10 | Cc1cc(-n2cnc(-c3ccc(NS(=O)(=O)CCO)cc3N3CCC4(CC3)CC4)c2)cc(N2CCC(F)(F)CC2)n1 [Example 13, N-(4-(1-(2-(4,4-difluoropiperidin-1-yl)-6-methylpyridin-4-yl)-1H-imidazol-4-yl)-3-(6-azaspiro[2.5]octan-6-yl)phenyl)-2-hydroxyethane-1-sulfonamide] | 444 nM | 1280 nM | 472 nM

Second part, the compound after the results:

Row | IC50 (HT29 cells) | IC50 [1] | IC50 (OVCAR3 cells) | SMILES
11 | > 3000 nM | 102 nM | 1180 nM | Cc1cc(-c2noc(-c3ccc(NS(=O)(=O)CCO)cc3N3CCC4(CC3)CC4)n2)nc(N2CCC(F)(F)CC2)n1 [Example 7]
12 | 88 nM | 158 nM | 145 nM | Cc1cc(-c2nnc(-c3ccc(NS(=O)(=O)CCO)cc3N3CCC4(CC3)CC4)s2)nc(N2CCC(F)(F)CC2)n1 [Example 14, N-(4-(5-(2-(4,4-difluoropiperidin-1-yl)-6-methylpyrimidin-4-yl)-1,3,4-thiadiazol-2-yl)-3-(6-azaspiro[2.5]oct-6-yl)phenyl)-2-hydroxyethane-1-sulfonamide]
13 | 60 nM | 60 nM | 61 nM | Cc1cc(-c2nnc(-c3ccc(NS(=O)(=O)CCO)cc3N3CCC4(CC3)CC4)o2)nc(N2CCC(F)(F)CC2)n1 [Example 15, N-(4-(5-(2-(4,4-difluoropiperidin-1-yl)-6-methylpyrimidin-4-yl)-1,3,4-oxadiazol-2-yl)-3-(6-azaspiro[2.5]octan-6-yl)phenyl)-2-hydroxyethane-1-sulfonamide]
14 | 1520 nM | 243 nM | 717 nM | Cc1cc(-c2nnc(-c3ccc(NS(=O)(=O)CCO)cc3N3CCC4(CC3)CC4)o2)nc(NC(C)(C)CO)n1 [Example 16, 2-hydroxy-N-(4-(5-(2-((1-hydroxy-2-methylpropan-2-yl)amino)-6-methylpyrimidin-4-yl)-1,3,4-oxadiazol-2-yl)-3-(6-azaspiro[2.5]octan-6-yl)phenyl)ethane-1-sulfon amide]
15 | 337 nM | 46 nM | 74 nM | Cc1cc(-c2nnc(-c3ccc(NS(=O)(=O)CCO)cc3N3CCC4(CC3)CC4)o2)nc(N2CCCC(O)C2)n1 (stereo not drawn) [Example 17, 2-hydroxy-N-(4-(5-(2-(3-hydroxypiperidin-1-yl)-6-methylpyrimidin-4-yl)-1,3,4-oxadiazol-2-yl)-3-(6-azaspiro[2.5]octan-6-yl)phenyl)ethane-1-sulfonamide]
16 | 26 nM | 52 nM | 30 nM | Cc1cc(-c2nnc(-c3ccc(NS(=O)(=O)CCO)cc3N3CCC4(CC3)CC4)o2)nc(N2CCO[C@H](C)C2)n1 [Example 18, (R)-2-hydroxy-N-(4-(5-(6-methyl-2-(2-methylmorpholino)pyrimidin-4-yl)-1,3,4-oxadiazol-2-yl)-3-(6-azaspiro[2.5]octan-6-yl)phenyl)ethane-1-sulfonamide]
17 | > 3000 nM | 630 nM | 1400 nM | Cc1cc(-c2nnc(-c3ccc(NS(=O)(=O)CCO)cc3N3CCC4(CC3)CC4)o2)nc(N2CCC(C)(O)CC2)n1 [Example 19, 2-hydroxy-N-(4-(5-(2-(4-hydroxy-4-methylpiperidin-1-yl)-6-methylpyrimidin-4-yl)-1,3,4-oxadiazol-2-yl)-3-(6-azaspiro[2.5]octan-6-yl)phenyl)ethane-1-sulfonamide]
18 | 55 nM | 61 nM | 139 nM | COc1cc(-c2nnc(-c3ccc(NS(=O)(=O)CCO)cc3N3CCC4(CC3)CC4)o2)nc(N2CCC(F)(F)CC2)n1 [Example 20, N-(4-(5-(2-(4,4-difluoropiperidin-1-yl)-6-methoxypyrimidin-4-yl)-1,3,4-oxadiazol-2-yl)-3-(6-azaspiro[2.5]octan-6-yl)phenyl)-2-hydroxyethane-1-sulfonamide]
